Patent publication US20120177701A1, “COMPOSITIONS COMPRISING IMMUNOSTIMULATORY NUCLEIC ACIDS AND RELATED METHODS” (priority 2010, published 2012)

Legend:
[1] = system: HEK-Blue™ Null; format: cell-based, human
[2] = system: J774 murine macrophages; assay: TNF-α induction in mouse macrophage cell line J774; format: cell-based
Method: Induction of TNF-α by macrophages is a hallmark of human TLR8 activation (Forsbach et al., 2008, J. Immunol., 180:3729-38; Ghosh et al., 2007, Int. Immunopharmacol., 7:1111-21; Gorden et al., 2005, J. Immunol., 174:1259-68). […] In the following experiment mouse macrophage cell line, J774, has been transfected by test ribonucleotides as described above for HEK-Blue™ hTLR8 cells (with the exception that 2-10×10^4 cells/well were used) and TNF-α was measured in culture supernatants at 16-20 hours after transfection.

[3] = system: murine splenocytes; assay: Immune cell activation (CD69 expression, FACS) in murine splenocytes; format: cell-based, mouse; details: 20 hours
Method: In addition, upon removal of the supernatant at 20 hours post-incubation, the mouse cells were stained for the following cell markers: GR1, F4/80, CD11c, CD220, CD3, Ly49b, and CD69, and analyzed by FACS. Different immune cell populations were distinguished as follows: macrophages (F4/80^+/GR1^−); plasmacytoid dendritic cells or pDC (CD11c^+/CD220^+); B cells (CD220^+/CD11c^−); NK (CD3^−/Ly49b^+); myeloid DC or mDC ([…]); granulocytes (eosinophils) (GR1^+high/F4/80^−); T cells (CD3^+); and NKT cells (CD3^+/Ly49b^+). All immune cell populations were quantified by the expression of CD69 (am early activation marker).

[4] = system: primary human lymphocytes; format: cell-based; details: 20 hours
[5] = 200 nM, compared with R848 1 μM

For “5′-GAGAUGUUAUUUUGUUUUUAAUAUUUC-3′ (phosphorothioate backbone, further chemistry not given here) [SL-0001, phosphorothioated 27-ribonucleotide from the 3′-terminus of Chikungunya virus strain TSI-GSD-218, bases 12010-12036]”, the “activation of SEAP expression” value [1] was “No activation of SEAP expression”, the “TNF-α induction, described in words” value [2] was “strongly induced TNF-α expression, to the level seen when R-0006 was used” and the “activation of immune cell populations (CD69 expression)” value ([3]; 200 nM DOTAP-complexed) was “induced activation in most of the tested immune cell populations”. The “immune cell activation compared with R848 and control oligonucleotide” value ([3]; 200 nM DOTAP-complexed, R848 1 μM) was “at least comparable to that generated by treatment with 1 μM of R848, and usually exceeded the effects exhibited by the control oligonucleotide R-0006”, the “NKT cell activation (CD69)” value [3, 5] was “exceeded the activation observed for R848” and the “T cell activation (CD69)” value [3, 5] was “exceeded the activation observed for R848”. For the same substance, the “granulocyte activation (CD69)” value [3, 5] was “exceeded the activation observed for R848”, the “macrophage activation (CD69)” value ([3]; 200 nM, compared with R-0006) was “especially higher than the activation observed for R-0006” and the “11-12(p40) induction” value [4] was “significant levels”. For the same substance, the IFNγ induction [4] was “significant levels”, the “IL-4 induction (Th2-type cytokine)” value [4] was “insignificant” and the “IL-5 induction (Th2-type cytokine)” value [4] was “insignificant”. For the same substance, the IL-6 induction [4] was “significant levels”, the IL-10 induction [4] was “significant levels” and the IL-23 induction [4] was “significant levels”. For the same substance, the TNFα induction [4] was “significant levels”.
